Like-named read-outs stand apart in the source and are kept apart here. Blank lines part the entries; values can stand above or below the molecule they belong to.
Assays:
Type in all cases: biochemical
[1] = target: T1, recombinant human PLA2 (snpPLA2) (Homo sapiens, UniProt P14555); experiment: Inhibition of recombinant human PLA2, radiolabelled E. coli assay
T1 sequence (P14555 21-144): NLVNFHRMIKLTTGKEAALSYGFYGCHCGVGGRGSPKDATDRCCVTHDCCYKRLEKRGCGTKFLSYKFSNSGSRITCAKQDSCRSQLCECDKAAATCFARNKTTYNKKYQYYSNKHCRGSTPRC
Description: (§1) Six different chemically-modified tetracyclines, including CMT-1 (4-dedimethylaminotetracycline), CMT-2 (tetracyclinonitrile), CMT-3 (6-demethyl-6-deoxy-4-dedimethylaminotetracycline), CMT-4 (4-de-dimethylamino-7-chloro-tetracycline), CMT-5 (pyrazole analog) and CMT-6 (4-hydroxy-4-dedimethylaminotetracycline), were examined for their ability to inhibit PLA2 activity in vitro. The sources of PLA2 that were tested included recombinant human PLA2, human pancreatic and porcine pancreatic PLA2 and Naja naja PLA2. […] Various concentrations of CMTs, ranging from 5-100 μg/ml, were preincubated with the different PLA2 enzymes for 30 minutes and the mixture was tested for PLA2 activity using a known E. coli assay method (see Arthritis and Rheumatism, 34 Supp. 9: p. S160 (abst C167)).
(§2) A chemically-modified tetracycline, 4-dedimethylamino-7-dimethylaminotetracycline (CMT-10), was examined for its ability to inhibit PLA2 activity in vitro. The sources of PLA2 that were tested included were recombinant human PLA2 (snpPLA2), human pancreatic and porcine pancreatic PLA2 and Naja naja PLA2. […] Various concentrations of CMT-10, ranging from 5-100 μg/ml, were preincubated with the different PLA2 enzymes for 30 minutes and the mixture was tested for PLA2 activity using a known E. coli assay method (see Arthritis and Rheumatism, 34 Supp. 9: p. S160 (abst C167)).
(§3) In particular, [^14 C]Oleic acid-labelled Escherichia coli (strain K12 C600) were used as the substrate. This substrate has been characterized with respect to phospholipid composition and distribution of radiolabel. Reaction mixtures contained 10 mg bovine serum albumin, 2 mM CaCl2, 2.8×10^8 radiolabelled E. coli and 0.1M Tris-HCl buffer, pH 7.5 in a total volume of 1.5 ml. Reaction mixtures were incubated at 37° C. for 30 min. The reaction was terminated by filtration through a 0.45 μm Millipore filter, thereby retaining unhydrolysed E. coli membranes, and allowing the [^14 C]oleic acid bound to the BSA carrier, released as a result of PLA2 hydrolysis, to pass through the filter. Assays were performed in duplicate and values shown represent the mean of two determinations with a SD<5% of the mean. Assays were performed in substrate excess and enzyme activities were corrected for non-enzymatichydrolysis. One unit of PLA2 activity is defined as the hydrolysis of 56 pmol of phospholipid substrate (representing 1% of total E. coli phospholipid) in 30 min at 37° C.

human pancreatic PLA2 = target: T2, human pancreatic PLA2 (Homo sapiens, UniProt P04054); experiment: Inhibition of human pancreatic PLA2, E. coli assay
T2 construct: radiolabelled E. coli membrane hydrolysis assay
T2 sequence (P04054 23-148): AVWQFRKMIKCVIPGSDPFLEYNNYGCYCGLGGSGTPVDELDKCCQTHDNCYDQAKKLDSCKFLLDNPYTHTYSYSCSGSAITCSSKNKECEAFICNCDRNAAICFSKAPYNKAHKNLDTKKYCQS
Description: as §1, §2, §3

porcine pancreatic PLA2 = target: T3, porcine pancreatic PLA2 (Sus scrofa, UniProt P00592); experiment: Inhibition of porcine pancreatic PLA2, E. coli assay
T3 construct: radiolabelled E. coli membrane hydrolysis assay
T3 sequence (P00592 23-146): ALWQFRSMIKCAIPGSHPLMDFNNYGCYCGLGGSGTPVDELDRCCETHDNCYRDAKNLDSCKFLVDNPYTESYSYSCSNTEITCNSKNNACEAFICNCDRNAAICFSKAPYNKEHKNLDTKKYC
Description: as §1, §2, §3

[2] = concentration required to inhibit 50% of PLA2, 30 min preincubation, read-out: IC50 (converted)
[3] = concentrations of 25 μg/ml or greater

SMILES: CN(C)c1ccc(O)c2c1C(C)(O)C1CC3CC(O)=C(C(N)=O)C(=O)C3(O)C(O)=C1C2=O (centres unmarked) [CMT-10, 4-dedimethylamino-7-dimethylaminotetracycline]
inhibition at 5 µg/mL ([1]; CMT-10 5 μg/ml): 4 ± 4%
inhibition at 10 µg/mL ([1]; CMT-10 10 μg/ml): 12 ± 2%
inhibition at 25 µg/mL ([1]; CMT-10 25 μg/ml): 45 ± 1%
inhibition at 50 µg/mL ([1]; CMT-10 50 μg/ml): 75 ± 2%
inhibition at 100 µg/mL ([1]; CMT-10 100 μg/ml): 87 ± 2%
IC50 [1, 2]: 67.5 µM
PLA2-inhibitory activity [1, 3]: significant PLA2 -inhibitory activity
inhibition of PLA2 activity ([1]; final concentration of 5 and 10 μg/ml): did not exhibit substantial inhibition
inhibition of human pancreatic PLA2 (human pancreatic PLA2): inhibit
inhibition at 30 µg/mL (human pancreatic PLA2; concentration of 30 μg/ml): 66%

SMILES: CN(C)C1C(=O)C(C#N)=C(O)C2(O)C(=O)C3=C(O)c4c(O)cccc4C(C)(O)C3CC12 (centres unmarked) [CMT-2, tetracyclinonitrile]
PLA2-inhibitory activity ([1]; even at the highest concentrations tested (range 5-100 μg/ml)): lacked any PLA2 -inhibitory activity

SMILES: CC1(O)c2cccc(O)c2C(=O)C2=C(O)C3(O)C(=O)C(C(N)=O)=C(O)C(O)C3CC21 (centres unmarked) [CMT-6, 4-hydroxy-4-dedimethylaminotetracycline]
IC50 [1, 2]: 40.7 µM
PLA2-inhibitory activity [1, 3]: significant PLA2 -inhibitory activity
inhibition of porcine pancreatic PLA2 (porcine pancreatic PLA2): inhibit
inhibition of human pancreatic PLA2 (human pancreatic PLA2): inhibit

PLA2-inhibitory activity [1, 3]: significant PLA2 -inhibitory activity
inhibition of porcine pancreatic PLA2 (porcine pancreatic PLA2): inhibit
inhibition of human pancreatic PLA2 (human pancreatic PLA2): inhibit
SMILES: NC(=O)C1=C(O)C2(O)C(=O)C3=C(O)c4c(O)cccc4CC3CC2CC1=O (centres unmarked) [CMT-3, 6-demethyl-6-deoxy-4-dedimethylaminotetracycline]

SMILES: CC1(O)c2c(Cl)ccc(O)c2C(=O)C2=C(O)C3(O)C(=O)C(C(N)=O)=C(O)CC3CC21 (centres unmarked) [CMT-4, 4-de-dimethylamino-7-chloro-tetracycline]
IC50 [1, 2]: 96.4 µM
PLA2-inhibitory activity [1, 3]: significant PLA2 -inhibitory activity
inhibition of porcine pancreatic PLA2 (porcine pancreatic PLA2): inhibit
inhibition of human pancreatic PLA2 (human pancreatic PLA2): inhibit

SMILES: CC1(O)c2cccc(O)c2C(=O)C2=C(O)C3(O)C(=O)C(C(N)=O)=C(O)CC3CC21 (centres unmarked) [CMT-1, 4-dedimethylaminotetracycline]
IC50 [1]: 92.2 µM
PLA2-inhibitory activity [1, 3]: significant PLA2 -inhibitory activity
inhibition of porcine pancreatic PLA2 (porcine pancreatic PLA2): inhibit
inhibition of human pancreatic PLA2 (human pancreatic PLA2): inhibit

From patent US5523297A, “Inhibition of excessive phospholipase A2 activity and/or production by non-antimicrobial tetracyclines” (The Research Foundation of State University of New York, priority 1995, dated 1996)
